Patent publication US6034086A, “Trifluoromethylquinolinecarboxylic acid derivative” (priority 1994, dated 2000)
Converted amounts (≈) assume the structure as drawn. Read-outs that look alike come from different tables or passages of the source.

Assays:
[1] = tested on: HIV; settings: AIDS 4, 1283 (1990) for DR-3355; WO 90/13542 for the others; cited from earlier work
[2] = tested on: HIV; experiment: cellular disorder-suppressing activity (anti-HIV activity) in HIV-infected MT-4 cells, MTT, method of R. Pauwel et al.; format: cell-based; settings: for EC50: Human immunodeficiency virus 1, MT4, 120 h, HIV-infected MT-4 cells, 37° C., 5 days, 5% carbon dioxide, MTT, read-out: EC50 (50% cellular disorder-suppressing activity against the HIV-infected cells)
Method: That is, MT-4 cells were centrifuged (1000×g, 5 minutes), and a cell-floating solution in which the resulting cellular sediments were suspended in a RPMI-1640 medium containing no serum was inoculated with HIV. The mixture was cultured at 37° C. for 1 hour and then added to a RPMI-1640 medium to which 10% bovine fetal serum was added (hereinafter referred to as the serum medium), and the mixture was washed and centrifuged (1000×g, 5 minutes). The HIV-infected cells thus obtained and HIV-non-infected cells were suspended in the serum media in an amount of 4×10^5 /ml, respectively, and each 100 μl of the suspensions were apportioned to the respective wells of a multiwell with 96 wells for tissue culture. Each 100 μl of the compounds which had been previously diluted with the serum medium stepwisely were apportioned to these respective wells, and then the mixtures were left to stand and cultured at 37° C. for 5 days in the presence of 5% carbon dioxide. In the same manner, the HIV-infected cells and the HIV-non-infected cells to which the compound was not added were cultured. […] It was confirmed that no mycoplasma was contained in the cell solution and the virus-inoculated solution.
The cellular disorder-suppressing activity against the HIV-non-infected cells to which the compound was not added was defined as 100%, and the cellular disorder-suppressing activity against the HIV-infected cells to which the compound was not added was defined as 0%.

[3] = method of R. Pauwel et al., statement in background section

Structure (SMILES)	anti-HIV activity reported in literature, in words [1]	cellular disorder-suppressing activity to HIV-infected cells (anti-HIV activity), in words [2]	cellular disorder-suppressing activity to HIV-infected cells (anti-HIV activity), in words [2, 3]	EC50 [2] [µg/mL]
O=C(O)c1cn(C2CC2)c2cc(N3CCNCC3)c(F)cc2c1=O [Ciprofloxacin]	anti-HIV activities	no anti-HIV activity was also recognized		
C[C@H]1COc2c(N3CCN(C)CC3)c(F)cc3c(=O)c(C(=O)O)cn1c23 [DR-3355]	anti-HIV activity		no anti-HIV activity was recognized	
CN1CCN(c2cc3c(cc2F)c(=O)c(C(=O)O)cn3-c2ccc(F)cc2)CC1 [Difloxacin]	anti-HIV activities		no anti-HIV activity was also recognized	
CCn1cc(C(=O)O)c(=O)c2cc(F)c(N3CCNCC3)nc21 [Enoxacin]	anti-HIV activities		no anti-HIV activity was also recognized	
O=C(O)c1cn(C2CC2)c2c(C(F)(F)F)c(N3CCN(c4ccccn4)CC3)c(F)cc2c1=O [Example 2, 1-cyclopropyl-6-fluoro-8-trifluoromethyl-1,4-dihydro-4-oxo-7-[4-(2-pyridyl)piperazin-1-yl]quinoline-3-carboxylic acid]				0.02 (≈ 0.042 µM)
Cn1cc(C(=O)O)c(=O)c2cc(F)c(N3CCN(c4ncccn4)CC3)c(C(F)(F)F)c21 [Example 8, 6-fluoro-8-trifluoromethyl-1,4-dihydro-4-oxo-1-methyl-7-[4-(2-pyrimidinyl)piperazin-1-yl]quinoline-3-carboxylic acid]				0.02 (≈ 0.0443 µM)
Cn1cc(C(=O)O)c(=O)c2cc(F)c(N3CCN(c4ccccn4)CC3)c(C(F)(F)F)c21 [Example 9, 6-fluoro-8-trifluoromethyl-1,4-dihydro-4-oxo-1-methyl-7-[4-(2-pyridyl)piperazin-1-yl]quinoline-3-carboxylic acid]				0.005 (≈ 0.0111 µM)
CCn1cc(C(=O)O)c(=O)c2cc(F)c(N3CCN(c4ccccn4)CC3)c(C(F)(F)F)c21 [Example 11, 1-ethyl-6-fluoro-8-trifluoromethyl-1,4-dihydro-4-oxo-7-[4-(2-pyridyl)piperazin-1-yl]quinoline-3-carboxylic acid]				0.01 (≈ 0.0215 µM)
Cn1cc(C(=O)O)c(=O)c2cc(F)c(N3CCN(c4ccc(F)cc4)CC3)c(C(F)(F)F)c21 [Example 22, 6-fluoro-8-trifluoromethyl-1,4-dihydro-4-oxo-1-methyl-7-[4-(4-fluorophenyl)piperazin-1-yl]quinoline-3-carboxylic acid]				0.0096 (≈ 0.0205 µM)
Cn1cc(C(=O)O)c(=O)c2cc(F)c(N3CCN(c4nccs4)CC3)c(C(F)(F)F)c21 [Example 23, 6-fluoro-8-trifluoromethyl-1,4-dihydro-4-oxo-1-methyl-7-[4-(2-thiazolyl)piperazin-1-yl]quinoline-3-carboxylic acid]				0.011 (≈ 0.0241 µM)
CCn1cc(C(=O)O)c(=O)c2cc(F)c(N3CCNC(C)C3)c(F)c21 (centres unmarked) [Lomefloxacin]	anti-HIV activities		no anti-HIV activity was also recognized	
CCn1cc(C(=O)O)c(=O)c2cc(F)c(N3CCNCC3)cc21 [Norfloxacin]	anti-HIV activities		no anti-HIV activity was also recognized	
NC1CCN(c2nc3c(cc2F)c(=O)c(C(=O)O)cn3-c2ccc(F)cc2F)C1 (centres unmarked) [Tosufloxacin]	anti-HIV activities		no anti-HIV activity was also recognized	
